Test results from US5498695A, “Paranitroaniline peptides” (Pfizer Inc., priority 1994, dated 1996).
Where a SMILES comes first, the peptide text is derived from it. Where no end group is shown, it is not given here. The star is where a group is joined. pNA = O=[N+]([O-])c1ccc(N*)cc1; Cbz = O=C(OCc1ccccc1)*; Boc = CC(C)(C)OC(=O)*

Legend:
[1] = target: T1, interleukin 1β converting enzyme (ICE) (Homo sapiens, UniProt P29466); experiment: Inhibition of ICE hydrolysis of CBZ-Val-Ala-Asp-pNA; assay type: biochemical; settings: for Ki: substrate CBZ-Val-Ala-Asp-pNA
T1 construct: ICE activity was purified from THP-1 cell lysates by three chromatographic steps; endogenous in cells; host or cells: THP-1 (ATCC-TIB 202) human monocyte cell line; Lysate was purified over G25, Q-Sepharose and MonoQ, then captured on protein A agarose beads carrying anti-ICE antibody
T1 sequence (P29466 120-297 limits assumed): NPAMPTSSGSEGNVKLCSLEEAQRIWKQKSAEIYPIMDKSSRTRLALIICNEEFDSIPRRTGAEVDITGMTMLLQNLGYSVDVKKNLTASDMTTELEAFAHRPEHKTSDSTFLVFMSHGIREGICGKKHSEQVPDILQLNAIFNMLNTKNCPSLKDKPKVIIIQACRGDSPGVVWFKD
T1 sequence (P29466 317-404 limits assumed): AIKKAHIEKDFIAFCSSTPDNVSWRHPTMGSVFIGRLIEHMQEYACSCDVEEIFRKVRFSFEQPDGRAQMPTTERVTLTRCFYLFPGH
Description: (§1) Other procedures for purification and assaying ICE are disclosed in Black et al., FEBS Letters, 247, 386-390 (1989), and Thornberry et al., Nature, 356, 768-774 (1992). Cell Culture And Lysates.
(§2) Human monocyte cell line, THP-1 (ATCC-TIB 202) was grown in RPMI media 1640 (Gibco BRL Gaithersburg, Md. 20877) with 10% fetal bovine serum, harvested by centrifugation, washed twice in Dulbecco's PBS […] without Ca^++, and resuspended in 10 mM Tris-HCl pH 8 buffer containing 5 mM DTT (dithiothreitol), 1 mM EDTA (ethylene diamine tetraacetic acid), 1 mM PMSF (phenylmethyl sulfonylfluoride), 1 μg/ml pepstatin, and 1 μg/ml leupeptin at 1-3×10^8 cells per ml. Cells were frozen at -70° C. until use and then lysed by thawing. Lysates were cleared by centrifugation at 20,000× g for 1 hour followed by 120,000×g for 1 hour.
(§3) ICE activity was purified from THP-1 cell lysates by three chromatographic steps: (A) Thp-1 cell lysate (1.5L) was desalted by G25 column chromatography (Pharmacia LKB Biotechnology) (B) The protein fraction was then subjected to ion-exchange chromatography on Q-Sepharose Fast Flow (Pharmacia LKB Biotechnology) in buffer A (20 mM Tris pH 7.8 containing 5 mM EDTA, 1 mM PMSF, 1 μg/ml pepstatin, and 1 μg/ml leupeptin). ICE activity was eluted with a gradient of NaCl in buffer A. (C) The active fractions from B were desalted, concentrated and subjected to MonoQ (trademark) (Pharmacia LKB Biotechnology) column chromatography. ICE activity was then eluted in a NaCl gradient. Active ICE fractions from C were pooled and used to bind immunoaffinity beads containing covalently linked antibodies raised against the first […] N-terminal residues of ICE (NH2 -Asp-Pro-Ala-Met-Pro-Thr-Ser-Ser-Val-Lys-Leu-Cys(SEQ ID NO:2)-CONH2).
Immobilization of ICE to immunoaffinity beads was done following standard protocols. […]
(§4) The enzymatic reaction was monitored spectrophotometrically at […]. The increase in absorbance at this wave length resulted from the release of pNA chromophore after hydrolysis by ICE of the peptidic-pNA substrate. […]

[2] = target: T1, interleukin 1β converting enzyme (ICE); experiment: Spectrophotometric hydrolysis of pNA substrates by immobilized ICE (release of pNA at 405 nM); assay type: biochemical; settings: 25° C.; for Increase In Absorbence Rates (mOD/min), first value: first of two rate values printed; for Increase In Absorbence Rates (mOD/min), first value / Increase In Absorbence Rates (mOD/min), second value: pH 7, 405 nM, condition that separates the two values not given; for Vmax (Rates) mOD/min: pNA substrate 0.01 to 1.5 mM, pH 7; for Increase In Absorbence Rates (mOD/min), second value: second of two rate values
Description: as §1, §2, §3
Immobilization of ICE to immunoaffinity beads was done following standard protocols. Briefly, IgG fractions were covalently linked to protein A beads as described by the manufacturers (Antibody Orientation Kit Protein A Agarose supplied by Affinica (trademark) (Product manufactured by Schleicher and Schuell)). Protein A beads were pelleted by centrifugation and washed with 5 times their volume with Affinica (trademark) supplied "binding buffer". IgG, appropriately diluted in "binding buffer," was then bound to the beads. The beads were then washed and the bound IgG was covalently linked with dimethyl suberimidate. After the reaction was stopped with the "quenching buffer" supplied by Affinica (trademark), the immunoaffinity beads were washed and stored in PBS buffer containing 0.02% NAN3. To bind the immunoaffinity beads with MonoQ purified ICE preparations, the beads were washed in 10 mM Tris HCL buffer pH 7.8 containing 5 mM DDT, 1 mM EDTA-NA, 1 ug/ml peptstatin, 1 ug/ml leupeptin and 10% glycerol ("washing buffer"). After the wash, the beads were mixed with ICE in the presence of 10% DMSO final concentration. The suspension was rotated slowly for 1 hour at room temperature. Subsequently, the beads were thoroughly washed with the "washing buffer" before they were used and resuspended in an equal volume of this buffer in the enzymatic assay.
The enzymatic reaction was carried out at 25° C. in 96 microtiter wells (100 μl final volume) with active enzyme immobilized to anti-ICE antibodies covalently linked to protein A beads as described above. The incubation mixtures for the enzymatic assays contained 0.01 to 1.5 mM of the pNA substrates and was made up in 8.35 mM MES, 4.17 mM Tris, 4.17 mM acetic acid, […] DMSO, 0.8 mM EDTA and 4.17 mM DTT (final concentrations)adjusted to a final pH of 7.
as §4, with “substrate. The release of the chormophore was linear with reaction time and the rates observed were proportional to ICE and substrate concentration.” for “substrate.”

Row | Compound | Ki [1] [µM] | type of inhibition ([1]; hydrolysis of CBZ-Val-Ala-Asp-pNA, affecting Km but not Vmax) | Increase In Absorbence Rates (mOD/min), first value [2] [mOD/min] | Vmax (Rates) mOD/min [2] [mOD/min] | Increase In Absorbence Rates (mOD/min), second value [2] [mOD/min]
1 | CC(C)[C@H](NC(=O)OC(C)(C)C)C(=O)N[C@@H](C)C(=O)N[C@@H](CC(=O)O)C(=O)Nc1ccc([N+](=O)[O-])cc1 [Example 4, t-BOCValAlaAsp-p-nitroanilide] (Boc-Val-Ala-Asp-pNA) |  |  | 0.17 | 0.24 | 0.10
2 | CC(=O)N[C@H](C(=O)N[C@@H](C)C(=O)N[C@@H](CC(=O)O)C(=O)Nc1ccc([N+](=O)[O-])cc1)C(C)C [Example 5, AcValAlaAsp-p-nitroanilide] (Ac-Val-Ala-Asp-pNA) |  |  | 0.15 | 0.25 | 0.08
3 | CC(C)[C@H](NC(=O)OCc1ccccc1)C(=O)N[C@@H](C)C(=O)N[C@@H](CC(=O)O)C(=O)Nc1ccc([N+](=O)[O-])cc1 [Example 6, CBZValAlaAsp-p-nitroanilide] (Cbz-Val-Ala-Asp-pNA) |  |  | 0.18 | 0.21 | 0.16
4 | CC(=O)N[C@@H](Cc1ccc(O)cc1)C(=O)N[C@H](C(=O)N[C@@H](C)C(=O)N[C@@H](CC(=O)O)C(=O)Nc1ccc([N+](=O)[O-])cc1)C(C)C [Example 1, Ac-TyrValAlaAsp (SEQ ID NO:1)-p-nitroanilide] |  |  | 0.21 | 0.27 | 0.17

The next lines start with results.

Row | Ki [1] [µM] | type of inhibition ([1]; hydrolysis of CBZ-Val-Ala-Asp-pNA, affecting Km but not Vmax) | Compound | Increase In Absorbence Rates (mOD/min), first value [2] [mOD/min] | Vmax (Rates) mOD/min [2] [mOD/min] | Increase In Absorbence Rates (mOD/min), second value [2] [mOD/min]
5 | 460 |  | H-NEAYVHDAPVRSLN [p70, H-Asn-Glu-Ala-Tyr-Val-His-Asp-Ala-Pro-Val-Arg-Ser-Leu-Asn] |  |  | 
6 | 1600 | competitive inhibitors | Ac-YVHDA-NH2 [p48, Ac-Tyr-Val-His-Asp-Ala(SEQ ID NO:4)-NH2] |  |  | 
